Where “and” joins values, the source holds several entries; their conditions need not be identical. Equal entries are not always repeated. Marks after values point to notes of the source that are not given here.

What all share (assay type): physicochemical
Data set [1] can be described thus: % transmission spectrum of 0.1% solution (breakthrough, steepness). As to conditions: for Steepness: distance in nm over which transmittance increases from 1 to 80%; for Breakthrough (1% T at 0.1%): value in nm where transmittance increases beyond 1%, 0.1% solution. An excerpt:
FIG. 2 is a is a graphical representation of the % transmission of compounds 142 and 143 measured in a 2 mm cuvette as 0.1% solutions in methanol (142 is the left most trace);
The synthesised benzoyl functionalised compounds and their spectroscopic properties can be seen in table 2 wherein; breakthrough denotes the value in nm where transmittance increases beyond 1%; steepness refers to the distance in nm over which transmittance increases from 1 to 80% (a higher value indicates a less steep transition from absorbing to transmitting and is generally unfavourable); and ^a denotes an average of multiple measurements. As a general comment, it can be noted that the benzoyl substituted compounds gave similar absorbance maxima to the corresponding trifluoroacetyl derivative.

The nature of data set [2]: Photostability protocol: thin film irradiated with xenon arc lamp. The following applies: 1 hour xenon arc lamp, ratio of absorbance at λmax irradiated vs unirradiated, ^a = average of multiple measurements. How it is done:
1 mL of a 3% solution of the test compound (30 mg of test compound in 1 mL solvent) was prepared in a solvent mix made up of 50% EtOH and 25% capric/caprylic triglyceride and 25% C12-C15 alkyl benzoate. 50 μL of this solution (containing 1.5 mg of test compound) was added carefully to the centre of a glass microscope slide and the volatile components left to evaporate in the dark for at least 3 hours to give a liquid film. The prepared films were then exposed for 1 hour to an Eimac 150 W xenon arc lamp filtered through Pyrex (15 Amp supply current, samples 19 cm from the lamp) previously allowed to warm up for 15 minutes prior to sample exposure. The irradiation was performed in a fume cupboard where the air flow was sufficient to keep sample T<30° C. One hour's exposure represented a calculated radiation dose (using meter) of approximately 100 MED.
In order to calculate the photostability of the test compounds, the exposed slides were placed in a beaker and rinsed with 2×5 mL EtOH, 1×5 mL MeOH. The combined washings were then added to a 100 mL volumetric flask and made up to 100 mL total volume with methanol. The UV absorbance was then measured in a 10 mm cuvette. The percent stability is measured as the ratio of absorbance at λmax for the irradiated sample compared to the unirradiated sample.
The thin films are a good surrogate for testing the stability of a candidate in, for example, a sunscreen formulation as they use cosmetic emollients as solvent and are formed at cosmetically relevant concentrations.

A short description of data set [3]: UV absorbance spectrum in solution (λmax, λcrit, extinction coefficients). As to conditions: for λcrit: critical wavelength; for E (1%, 1 cm): mass extinction coefficient; for ε: molar extinction coefficient, in M-1 cm-1 (unit assumed). The procedure, abridged: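 Spectra taken on 0.001% solutions in methanol, 10 mm path. Breakthrough is the wavelength where transmittance rises above 1%; steepness is the nm span over which transmittance goes from 1 to 80%.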

For `CC1(C)CN(/C=C(/C(=O)c2ccccc2)c2ccccc2)c2ccccc21` [Compound 246], in data set [1], the Steepness is given as 43 nm and the “Breakthrough (1% T at 0.1%)” value is listed as 405 nm. The Photostability in data set [2] is given as 53%. In data set [3], the λmax is 357 nm; the λcrit is listed as 385 nm; the “E (1%, 1 cm)” value is on record as 451; the ε is on record as 15933.
Take `COC(=O)c1ccc2c(c1)CCN2/C=C(/C(=O)c1ccccc1)c1ccccc1` [Compound 247]: in data set [1], the Steepness was determined as 34 nm and the “Breakthrough (1% T at 0.1%)” value is recorded as 422 nm. The Photostability in data set [2] came to 76%. In addition, in data set [3], the λmax was found to be 371 nm; the λcrit was found to be 389 nm; the “E (1%, 1 cm)” value was found to be 1096; the ε was 41977.
On to `CCOC(=O)C(=O)/C(=C\N(CC)c1ccccc1)c1ccccc1` [Compound 248], for which, in data set [1], the Steepness is 38 nm and the “Breakthrough (1% T at 0.1%)” value was 383 nm. Also, the Photostability in data set [2] turned out to be 78%. Moreover, in data set [3], the λmax is 329 nm; the λcrit is listed as 368 nm; the “E (1%, 1 cm)” value is 728; the ε is 23523.
Take `Cc1ccccc1C(=O)/C(=C/N(c1ccccc1)c1ccccc1)c1ccccc1` [Compound 250]: in data set [1], the Steepness is listed as 37 nm and the “Breakthrough (1% T at 0.1%)” value is on record as 389 nm. The Photostability in data set [2] is 60%. Also, in data set [3], the λmax was 341 nm; the λcrit is 373 nm; the “E (1%, 1 cm)” value was determined as 738; the ε turned out to be 28714.
Take `Cc1ccccc1C(=O)/C(=C/N1CCc2ccccc21)c1ccccc1` [Compound 251]: in data set [1], the Steepness amounted to 30 nm and the “Breakthrough (1% T at 0.1%)” value is given as 399 nm. Moreover, the Photostability in data set [2] worked out at 52%. Moreover, in data set [3], the λmax is 355 nm; the λcrit is listed as 378 nm; the “E (1%, 1 cm)” value was found to be 991; the ε worked out at 33598.
For the compound `CCN(/C=C(/C(=O)c1ccccc1C)c1ccccc1)c1ccccc1` [Compound 252], in data set [1], the Steepness is 39 nm; the “Breakthrough (1% T at 0.1%)” value was 373 nm and 372 nm. Also, the Photostability in data set [2] is given as 48%. For the same compound, in data set [3], the λmax is on record as 323 nm; the λcrit was 359 nm; the “E (1%, 1 cm)” value was determined as 771; the ε stood at 26295.
As for `Cc1cc(C)c(C(=O)/C(=C/N2CCc3ccccc32)c2ccccc2)c(C)c1` [Compound 253], in data set [1], the Steepness was 26 nm and the “Breakthrough (1% T at 0.1%)” value turned out to be 392 nm. The Photostability in data set [2] is 78%. For the same compound, in data set [3], the λmax amounted to 355 nm; the λcrit amounted to 375 nm; the “E (1%, 1 cm)” value stood at 929; the ε was found to be 34122.
On to `Cc1cc(C)c(C(=O)/C(=C/N(c2ccccc2)c2ccccc2)c2ccccc2)c(C)c1` [Compound 254], for which, in data set [1], the Steepness is on record as 32 nm and the “Breakthrough (1% T at 0.1%)” value was determined as 383 nm. The Photostability in data set [2] is listed as 88^a %. In addition, in data set [3], the λmax is 341 nm; the λcrit is listed as 369 nm; the “E (1%, 1 cm)” value amounted to 661; the ε was found to be 27592.
For `CCN(/C=C(/C(=O)c1c(C)cc(C)cc1C)c1ccccc1)c1ccccc1` [Compound 255], in data set [1], the Steepness amounted to 34 nm and the “Breakthrough (1% T at 0.1%)” value came out at 364 nm. Also, the Photostability in data set [2] is listed as 83^a %. In data set [3], the λmax stood at 323 nm; the λcrit was 351 nm; the “E (1%, 1 cm)” value is listed as 798; the ε was determined as 29450.
Turning to `CCOC(=O)C(=O)/C(=C/N1CCc2cc(C(=O)OC)ccc21)c1ccccc1` [Compound 256], in data set [1], the Steepness was 28 nm and the “Breakthrough (1% T at 0.1%)” value was 421 nm. Also, the Photostability in data set [2] was 85%. In data set [3], the λmax was determined as 372 nm; the λcrit came out at 391 nm; the ε was 48566 and 46566.

For the origin of these results see patent US11512042B2, “Enamine compounds for absorbance of electromagnetic energy” (Commonwealth Scientific and Industrial Research Organisation, priority 2015, dated 2022).
